Laboratory results from PubChem BioAssay (NCI).
Values joined by “and” are separate entries in the source; they are usually repeats but may differ in a detail not shown here. Equal entries are not always repeated.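 Tested at 5 concentrations; 48 h exposure; 96-well plates; endpoints linearly interpolated, else capped at highest concentration. GI50: concentration for 50% inhibition of growth. At the TGI there is no net growth.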

Assays:
Experiment in all cases: NCI-60 cell line screen, 48 h
[1] = system: SNB-75 CNS
[2] = system: DU-145 prostate
[3] = system: SR leukemia
[4] = system: MDA-MB-435
[5] = system: T-47D breast
[6] = system: M14 melanoma
[7] = system: A498 renal
[8] = system: A549 NSCLC
[9] = system: OVCAR-4 ovarian
[10] = system: NCI-H23 lung
[11] = system: SF-539 CNS
[12] = system: SN12C renal
[13] = system: HCT-116 colon
[14] = system: HOP-92 NSCLC
[15] = system: OVCAR-3 ovarian
[16] = system: 786-0 renal
[17] = system: OVCAR-8 ovarian
[18] = system: UO-31 renal
[19] = system: PC-3 prostate
[20] = system: SK-MEL-2 melanoma
[21] = system: IGROV1 ovarian
[22] = system: CCRF-CEM leukemia
[23] = system: SK-OV-3 ovarian
[24] = system: HCT-15 colon
[25] = system: MOLT-4 leukemia
[26] = system: TK-10 renal
[27] = system: MDA-N
[28] = system: SF-295 CNS
[29] = system: NCI-H522 lung
[30] = system: LOX IMVI melanoma
[31] = system: MALME-3M melanoma
[32] = system: COLO 205 colon
[33] = system: OVCAR-5 ovarian
[34] = system: HT29 colon
[35] = system: SK-MEL-28 melanoma
[36] = system: BT-549 breast
[37] = system: NCI-H460 lung
[38] = system: MDA-MB-231 breast
[39] = system: EKVX NSCLC
[40] = system: UACC-62 melanoma
[41] = system: RXF 393 renal
[42] = system: UACC-257 melanoma
[43] = system: NCI/ADR-RES ovarian
[44] = system: SK-MEL-5 melanoma
[45] = system: SF-268 CNS
[46] = system: KM12 colon
[47] = system: K-562 leukemia
[48] = system: U251 CNS
[49] = system: CAKI-1 renal
[50] = system: HS 578T breast
[51] = system: HL-60(TB) leukemia
[52] = system: ACHN renal
[53] = system: SNB-19 CNS
[54] = system: NCI-H226 lung
[55] = system: SW-620 colon
[56] = system: MCF7 breast
[57] = system: HOP-62 NSCLC
[58] = system: HCC-2998 colon
[59] = system: RPMI-8226 leukemia

In the case of CCSC12CC3c4cccc5c4C(CN5C(=O)c4ccccc4)CC3(O1)N(C)C2=O (stereo not drawn), the TGI [1] is reported as greater than 100 µM, the TGI [2] is reported as greater than 100000 nM and the TGI [3] is reported as 77.6 µM. The TGI [4] was greater than 100000 nM, the TGI [5] was greater than 100 µM and the TGI [6] was greater than 100000 nM. For the same compound, the TGI [7] was greater than 100 µM, the TGI [8] was greater than 100 µM and the TGI [9] was greater than 100 µM. The TGI [10] was 69.8 µM, the TGI [11] was greater than 100000 nM and the TGI [12] was 62.9 µM. It also gave a TGI [13] greater than 100 µM, a TGI [14] of 71.9 µM and a TGI [15] greater than 100000 nM. For the same compound, the TGI [16] was greater than 100 µM, the TGI [17] was greater than 100 µM and the TGI [18] was greater than 100 µM. It also gave a TGI [19] of 81.2 µM, a TGI [20] of 89.5 µM and a TGI [21] greater than 100 µM. It also gave a TGI [22] greater than 100 µM, a TGI [23] greater than 100 µM and a TGI [24] greater than 100 µM. It also gave a TGI [25] of 62.6 µM, a TGI [26] greater than 100 µM and a TGI [27] of 81600 nM. It also gave a TGI [28] greater than 100 µM, a TGI [29] of 64.7 µM and a TGI [30] greater than 100000 nM. The TGI [31] was 88300 nM, the TGI [32] was 75 µM and the TGI [33] was greater than 100 µM. It also gave a TGI [34] greater than 100000 nM, a TGI [35] greater than 100 µM and a TGI [36] of 80.7 µM. The TGI [37] was greater than 100 µM, the TGI [38] was greater than 100 µM and the TGI [39] was 83.4 µM. For the same compound, the TGI [40] was 67.9 µM, the TGI [41] was greater than 100 µM and the TGI [42] was greater than 100000 nM. For the same compound, the TGI [43] was greater than 100 µM, the TGI [44] was 28900 nM and the TGI [45] was greater than 100 µM. The TGI [46] was greater than 100 µM, the TGI [47] was greater than 100 µM and the TGI [48] was greater than 100 µM. It also gave a TGI [49] greater than 100 µM, a TGI [50] greater than 100 µM and a TGI [51] of 55.7 µM. It also gave a TGI [52] greater than 100 µM, a TGI [53] greater than 100 µM and a TGI [54] greater than 100 µM. For the same compound, the TGI [55] was greater than 100 µM.
For Cc1ccc(-n2cc(-c3ccc(Cl)cc3)c3c2N=CN2NC(c4cccs4)=NC32)cc1 (stereo not drawn), the TGI [1] was 23.4 µM, the TGI [56] was greater than 100000 nM and the TGI [2] was greater than 100000 nM. For the same compound, the TGI [3] was greater than 100 µM, the TGI [4] was greater than 100000 nM and the TGI [6] was greater than 100000 nM. The TGI [7] was 35.9 µM, the TGI [8] was greater than 100 µM and the TGI [9] was 6.17 µM. It also gave a TGI [10] of 52.3 µM, a TGI [11] of 45200 nM and a TGI [12] of 29 µM. The TGI [13] was 22 µM, the TGI [14] was 24 µM and the TGI [15] was 35000 nM. For the same compound, the TGI [16] was 15.5 µM, the TGI [17] was 21 µM and the TGI [18] was 27.7 µM. It also gave a TGI [19] greater than 100 µM, a TGI [20] of 33 µM and a TGI [21] of 34.7 µM. The TGI [22] was 42.4 µM, the TGI [23] was 37.3 µM and the TGI [24] was greater than 100 µM. It also gave a TGI [26] of 27.9 µM, a TGI [27] greater than 100000 nM and a TGI [28] of 25.2 µM. The TGI [29] was greater than 100 µM, the TGI [30] was greater than 100000 nM and the TGI [31] was greater than 100000 nM. It also gave a TGI [32] of 28.7 µM, a TGI [57] of 35.2 µM and a TGI [33] of 51 µM. For the same compound, the TGI [34] was greater than 100000 nM, the TGI [35] was greater than 100 µM and the TGI [36] was 53.7 µM. For the same compound, the TGI [37] was 19.2 µM, the TGI [38] was 21.5 µM and the TGI [58] was greater than 100 µM. It also gave a TGI [39] of 57.1 µM, a TGI [40] of 68.6 µM and a TGI [41] of 31.4 µM. The TGI [42] was greater than 100000 nM, the TGI [43] was 40.9 µM and the TGI [44] was greater than 100000 nM. The TGI [45] was 69.5 µM, the TGI [47] was greater than 100 µM and the TGI [48] was 18.1 µM. For the same compound, the TGI [49] was 40.4 µM, the TGI [50] was 6.52 µM and the TGI [51] was 45.1 µM. For the same compound, the TGI [52] was 19.2 µM, the TGI [53] was 51.1 µM and the TGI [54] was 80.7 µM. The TGI [55] was greater than 100 µM.
In the case of O=C1C=C(OCCCl)C(=O)c2c(O)ccc(O)c21, the GI50 [1] is reported as 2100 nM, the TGI [1] is reported as 0.97 µM and 3.74 µM and the GI50 [56] is reported as 399 nM. The TGI [56] was 472 nM and 1750 nM, the GI50 [2] was 1010 nM and the TGI [2] was 746 nM and 2290 nM. For the same compound, the TGI [3] was 3.22 µM, the GI50 [4] was 157 nM and the TGI [4] was 389 nM and 294 nM. The TGI [5] was 4.52 µM, the GI50 [6] was 741 nM and the TGI [6] was 320 nM and 2190 nM. The GI50 [7] was 2380 nM, the TGI [7] was 2.55 µM and 4.25 µM and the GI50 [8] was 1630 nM. The TGI [8] was 0.686 µM and 3.41 µM, the TGI [9] was 3.01 µM and 3.1 µM and the GI50 [10] was 1500 nM. The TGI [10] was 0.503 µM and 3.22 µM, the GI50 [11] was 1580 nM and the TGI [11] was 2820 nM and 2930 nM. The GI50 [12] was 1580 nM, the TGI [12] was 0.526 µM and 3.03 µM and the GI50 [13] was 1330 nM. The TGI [13] was 1.33 µM and 3.2 µM, the GI50 [14] was 3.43 µM and the TGI [14] was 3.8 µM and 8 µM. The GI50 [15] was 286 nM, the TGI [15] was 2330 nM and 1080 nM and the GI50 [16] was 2520 nM. The TGI [16] was 3.22 µM and 6.75 µM, the GI50 [17] was 1590 nM and the TGI [17] was 5.08 µM and 3.03 µM. For the same compound, the GI50 [18] was 1950 nM, the TGI [18] was 2.76 µM and 4.5 µM and the GI50 [19] was 2670 nM. The TGI [19] was 4.32 µM and 10.1 µM, the GI50 [20] was 2100 nM and the TGI [20] was 1.4 µM and 4.39 µM. For the same compound, the TGI [21] was 3.43 µM and 3.66 µM, the GI50 [22] was 1320 nM and the TGI [22] was 3.5 µM. The GI50 [23] was 25.2 µM, the GI50 [24] was 1400 nM and the TGI [24] was 0.433 µM and 3.15 µM. The GI50 [25] was 368 nM, the TGI [25] was 6.5 µM and 1.58 µM and the GI50 [26] was 3000 nM. For the same compound, the TGI [26] was 5.55 µM and 6.83 µM, the GI50 [27] was 236 nM and the TGI [27] was 290 nM and 539 nM. The GI50 [28] was 2440 nM, the TGI [28] was 3 µM and 4.53 µM and the GI50 [29] was 1570 nM. The TGI [29] was 4.44 µM and 3.14 µM, the GI50 [30] was 465 nM and the TGI [30] was 392 nM and 1830 nM. The GI50 [31] was 215 nM, the TGI [31] was 340 nM and 911 nM and the GI50 [32] was 592 nM. For the same compound, the TGI [32] was 0.338 µM and 1.92 µM, the GI50 [57] was 1970 nM and the TGI [57] was 1.52 µM and 3.39 µM. For the same compound, the GI50 [33] was 2010 nM, the TGI [33] was 2.98 µM and 3.56 µM and the GI50 [34] was 1120 nM. The TGI [34] was 1030 nM and 2890 nM, the GI50 [35] was 2080 nM and the TGI [36] was 0.477 µM. For the same compound, the GI50 [37] was 2150 nM, the TGI [37] was 2.05 µM and 4.67 µM and the GI50 [38] was 3.29 µM. For the same compound, the TGI [38] was 3.27 µM and 8.96 µM, the GI50 [58] was 1120 nM and the TGI [58] was 3.03 µM and 2.47 µM. The TGI [39] was 3.36 µM and 3.73 µM, the GI50 [40] was 386 nM and the TGI [40] was 0.519 µM and 1.61 µM. The TGI [41] was 3.38 µM and 3.96 µM, the GI50 [42] was 762 nM and the TGI [42] was 358 nM and 2440 nM. The GI50 [43] was 9.41 µM, the TGI [44] was 321 nM and 299 nM and the GI50 [45] was 3.98 µM. The TGI [45] was 2.6 µM and 15.3 µM, the GI50 [46] was 6.4 µM and the TGI [46] was 4.38 µM and 20.6 µM. It also gave a GI50 [47] of 1170 nM, a TGI [47] of 3.11 µM and a GI50 [48] of 2760 nM. For the same compound, the TGI [48] was 3.33 µM and 7.48 µM, the GI50 [49] was 1750 nM and the TGI [49] was 3.88 µM and 3.16 µM. The GI50 [59] was 1380 nM, the TGI [59] was 6.78 µM and 4.08 µM and the GI50 [51] was 230 nM. For the same compound, the TGI [51] was 2.58 µM and 1.17 µM, the GI50 [52] was 1890 nM and the TGI [52] was 2.89 µM and 4.95 µM. The TGI [53] was 2.56 µM, the TGI [54] was 5.07 µM and 4.64 µM and the GI50 [55] was 296 nM and 1560 nM. The TGI [55] was 1.15 µM and 3.85 µM.
